Experimental data as given in patent publication US10695341B2, “Compositions and methods for treating endometriosis” (UNIVERSITY OF SOUTH FLORIDA, priority 2014, dated 2020).

System: G-CSF, eotaxin, and IP-10
Assay: Peritoneal fluid cytokine/chemokine magnetic bead panel
Assay type: in vivo, mouse
Description: After animals were euthanized, 1 ml of sterile PBS was injected into the peritoneal cavity, the abdominal area was gently massaged, and the fluid collected. The collected fluid was centrifuged at 1,390 rpm for 5 min at 4° C. and the resulting supernatant was then stored at −80° C. Levels of chemokines and cytokines were analyzed using a MCYTOMAG-70K-PX32 (Millipore, Billerica, Mass.) following manufacturer's instructions. Briefly, 200 μl of wash buffer was added to each well and incubated for 10 min at room temperature in a plate shaker. After incubation, the wash buffer was decanted and the plate was inverted and tapped on absorbent towel several times. Then, 25 μl of assay buffer was added to each well followed by 25 μl of concentration standards, assay controls, or samples. The premixed bottle was vortexed and 25 μl of the beads were added to each well. The plate was incubated overnight at 4° C., protected from light. Then the plate was incubated for 1 min on the hand-held magnet and the well content was gently decanted and tapped on absorbent pads. Each well was washed twice using 200 μl of wash buffer, followed by the incubation on the hand-held magnet. Antibody detection solution was allowed to warm to room temperature, and then 25 μl was added to each well and incubated for 1 h at room temperature on a plate shaker, protected from light. Next, 25 μl of Streptavidin-Phycoerythrin was added to each well containing the detection antibodies and incubated for 30 min at room temperature protected from light on a plate shaker. After the incubation, the plate was washed twice as previously described and 150 μl of Sheath Fluid was added to each well. The plate was analyzed using MAGPIX™ instrument and xPONENT software solutions, version 4.2.

[1] = HCQ-treated vs PBS-treated mice

## CCN(CCO)CCCC(C)Nc1ccnc2cc(Cl)ccc12 (stereo not drawn) [HCQ, hydroxychloroquine]
HCQ-treated (n=5) vs PBS-treated mice, p=0.0079
  IP-10 in peritoneal fluid: significantly increased
[1]
  G-CSF in peritoneal fluid: remained unchanged
  eotaxin in peritoneal fluid: remained unchanged
